The text below walks through data of patent publication US8895579B2, “Heterotricyclic AMPA receptor antagonists for treatment of epilepsy, pain, and other neurological disorders and diseases” (Northwestern University, priority 2010, dated 2014).

Test [1] has as its target T1, recombinant homomeric GluA4 AMPA receptor (Rattus norvegicus, UniProt P19493).
T1 construct: expressed in transfected cells; host or cells: HEK293-T/17 (CRL-11268)
The test can be described thus: Whole-cell patch clamp of recombinant GluA4 receptors in HEK293-T/17 cells. The following applies: for inhibition at 30 µM: HEK293T/17, 30 μM. The test is classed as cell-based. As to the method: (§1) Cell Culture and Transfection. Human embryonic kidney cells expressing T-antigen, clone 17 (HEK293-T/17) (CRL-11268) were cultured at 37° C. with 5% CO2 in DMEM, including 100 μg/mL penicillin, 100 μg/mL streptomycin, and 10% heat-inactivated fetal bovine serum. Cells were split twice per week. For transfection, HEK293-T/17 cells were plated at 3×10^4 cells/cm^2 for pharmacology experiments and 5×10^3 cells/cm^2 for physiology experiments in fresh medium 24 h prior to transfection. Cells were transfected with AMPA or KA receptor plasmid cDNAs using Mirus Trans-IT transfection reagent (Minus Bio Corporation, Madison, Wis.) at a ratio of 1 μg cDNA: 3 μL Trans-1T reagent and maintained in transfection medium overnight followed by a media change the next day. Transfected cells were maintained in this medium until the experiment was conducted (48-72 h total post transfection).
Electrophysiology. For analysis of recombinant receptors, HEK293-T/17 cells were co-transfected with 0.2 μg of iGluR cDNA and 0.05 μg of eGFP. For heterologous GluA1/GluA2 receptors, the GluA1:GluA2 cDNA ratio was 1:6. Two to three days post-transfection, eGFP-expressing cells were lifted from the cover slip and voltage clamped in whole cell mode. The internal solution contained (in mM) 30 CsF, 110 CsCl, 10 HEPES, 4 NaCl, 5 EGTA and 0.5 CaCl2 (pH 7.3), while the extracellular solution contained (in mM) 140 NaCl, 10 glucose, 10 Cs-HEPES, 3 KCl, 2 CaCl2 and 1 MgCl2 (pH 7.3). Borosilicate patch electrodes were pulled and fire polished to 2-3 MO resistance. Lifted cells were maintained in a laminar stream of extracellular solution from a triple-barreled flow pipe, which was rapidly translated using a piezoceramic bimorph for fast application of glutamate or kainate alone or in combination with various antagonists (the 10-90% rise time of glutamate-evoked currents was ˜1 ms). IKM compounds were applied for three minutes with analysis performed on the final one minute of drug application.
Statistical analysis. At least three separate experiments were performed for each assay. For data involving three or more groups, a one-way analysis of variance (ANOVA) was performed with a Tukey-Kramer post hoc test for comparison amongst the groups. For data involving two groups, an unpaired student's t-test was performed; if the standard deviations between the two groups were statistically significant, a Welsh correction was added. If the data involving three or more groups or data involving two groups where multiple treatments were performed on the same sample, a repeated measures ANOVA and paired t-test were used, respectively, for analysis of significance. Dose-inhibition response curves were fitted, with the maximum value constrained to 100 and the minimum value constrained to values greater than or equal to zero, using the following equation in order to calculate the IC50 values: Response=minimum+(maximum−minimum)/(1+(IC50^hill slope/dose^hillslope)) All calculations for statistical analysis were carried out with Graphpad Prism4 software (La Jolla, Calif.). Data are presented as mean±S.E.M. with statistical significance set at p<0.05.
On the technique in general: In patch-clamp work, channel activity is measured electrically.

Test [2] deals with T2, homomeric GluK1-2b kainate receptor (Rattus norvegicus, UniProt P22756).
T2 construct: myc; expressed in transfected cells; host or cells: HEK293-T/17 (CRL-11268)
Briefly: Whole-cell patch clamp of recombinant GluK1-2b receptors in HEK293-T/17 cells. Type of test: cell-based. The following applies: 30 μM; 10 mM glutamate. As to the method: as §1
Electrophysiology. For analysis of recombinant receptors, HEK293-T/17 cells were co-transfected with 0.2 μg of iGluR cDNA and 0.05 μg of eGFP. For heterologous GluA1/GluA2 receptors, the GluA1:GluA2 cDNA ratio was 1:6. Two to three days post-transfection, eGFP-expressing cells were lifted from the cover slip and voltage clamped in whole cell mode. […]

For test [3], the system named is NMDA receptor-mediated EPSCs, CA1 pyramidal cells. The test can be described thus: NMDA receptor EPSCs at Schaffer collateral-CA1 synapses, acute hippocampal slices. The test is classed as cell-based, mouse. The following applies: 20 μM; 5 min treatment. As to the method: For recordings from acute hippocampal slices, brains from P15-21 C57Bl/6 mice were sliced transversely (350 μm thickness) in a sucrose slicing solution containing (in mM) 85 NACl, 2.5 KCl, 1.25 NaH2PO4, 25 NaHCO3, 25 glucose, 75 sucrose, 0.5 CaCl2, 4 MgCl2, 0.5 Na ascorbate, 10 μM DL-APV and 100 μM kynurenic acid (pH 7.3). After slicing, the solution was exchanged with an incubation solution containing (in mM) 125 NaCl, 2.4 KCl, 1.2 NaH2PO4, 25 NaHCO3, 25 glucose: 1 CaCl2, 2 MgCl2, 0.5 Na ascorbate, 10 μM DL-APV and 100 μM kynurenic acid (pH 7.3) that was bubbled continuously with CO2-balanced O2 (carbogen). […] Recordings in voltage clamp mode used the CsF/CsCl internal solution and carbogenated external recording solution containing (in mM) 120 NaCl, 2.4 KCl, 2 MgCl2, 1 CaCl2, 25 NaHCO3, 1.2 NaH2PO4, 25 glucose, 10 μM bicuculline methiodide, 50 μM PTX and 50 μM D-APV (pH 7.3). […] NMDA EPSCs were validated by addition of D-APV (50 μM) at the end of each recording. Hippocampal CA1 or CA3 pyramidal cells were voltage clamped at −70 mV and stimulated with a monopolar electrode either the stratum radiatum or stratum lucidum, respectively. […] EPSC charge transfer, AP frequency, paired-pulse ratio and EPSC peak amplitude were analyzed with Mini-Analysis v6.03 (Synaptosoft, Decatur, Ga.) and Clampfit v10.0 (MDS, Sunnyvale, Calif.) software.

Molecules are shown by their SMILES. Like-named read-outs stand apart in the source and are kept apart here.

Broadly, the inhibition is the change of the read-out against control, counted positive when it falls. The IC50 is the concentration at which inhibition is half-maximal.

T1 sequence (P19493 21-902 isoform P19493-2 limits assumed): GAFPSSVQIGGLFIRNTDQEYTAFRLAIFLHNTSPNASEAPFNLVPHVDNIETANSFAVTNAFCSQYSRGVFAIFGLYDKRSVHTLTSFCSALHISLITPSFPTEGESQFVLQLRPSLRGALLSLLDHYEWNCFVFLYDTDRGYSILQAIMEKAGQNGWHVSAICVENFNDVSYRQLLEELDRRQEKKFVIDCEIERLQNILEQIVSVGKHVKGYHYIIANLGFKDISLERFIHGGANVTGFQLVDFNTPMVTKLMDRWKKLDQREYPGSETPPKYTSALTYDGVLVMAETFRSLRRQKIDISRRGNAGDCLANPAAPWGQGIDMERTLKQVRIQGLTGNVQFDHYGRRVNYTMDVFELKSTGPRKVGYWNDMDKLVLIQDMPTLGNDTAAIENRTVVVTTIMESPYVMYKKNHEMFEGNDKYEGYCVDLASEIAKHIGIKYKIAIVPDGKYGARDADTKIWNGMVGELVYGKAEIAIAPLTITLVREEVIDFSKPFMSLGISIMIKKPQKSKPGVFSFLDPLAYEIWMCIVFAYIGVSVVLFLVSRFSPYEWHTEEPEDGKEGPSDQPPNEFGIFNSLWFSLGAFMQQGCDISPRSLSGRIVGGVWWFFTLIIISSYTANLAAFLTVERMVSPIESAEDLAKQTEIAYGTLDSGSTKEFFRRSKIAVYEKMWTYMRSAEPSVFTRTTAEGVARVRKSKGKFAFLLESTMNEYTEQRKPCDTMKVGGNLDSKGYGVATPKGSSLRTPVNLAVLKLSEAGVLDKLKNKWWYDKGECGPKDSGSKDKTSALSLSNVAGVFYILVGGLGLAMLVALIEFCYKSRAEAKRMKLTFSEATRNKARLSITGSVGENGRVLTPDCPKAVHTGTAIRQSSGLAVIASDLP
T2 sequence (P22756 31-905 isoform P22756-2 limits assumed): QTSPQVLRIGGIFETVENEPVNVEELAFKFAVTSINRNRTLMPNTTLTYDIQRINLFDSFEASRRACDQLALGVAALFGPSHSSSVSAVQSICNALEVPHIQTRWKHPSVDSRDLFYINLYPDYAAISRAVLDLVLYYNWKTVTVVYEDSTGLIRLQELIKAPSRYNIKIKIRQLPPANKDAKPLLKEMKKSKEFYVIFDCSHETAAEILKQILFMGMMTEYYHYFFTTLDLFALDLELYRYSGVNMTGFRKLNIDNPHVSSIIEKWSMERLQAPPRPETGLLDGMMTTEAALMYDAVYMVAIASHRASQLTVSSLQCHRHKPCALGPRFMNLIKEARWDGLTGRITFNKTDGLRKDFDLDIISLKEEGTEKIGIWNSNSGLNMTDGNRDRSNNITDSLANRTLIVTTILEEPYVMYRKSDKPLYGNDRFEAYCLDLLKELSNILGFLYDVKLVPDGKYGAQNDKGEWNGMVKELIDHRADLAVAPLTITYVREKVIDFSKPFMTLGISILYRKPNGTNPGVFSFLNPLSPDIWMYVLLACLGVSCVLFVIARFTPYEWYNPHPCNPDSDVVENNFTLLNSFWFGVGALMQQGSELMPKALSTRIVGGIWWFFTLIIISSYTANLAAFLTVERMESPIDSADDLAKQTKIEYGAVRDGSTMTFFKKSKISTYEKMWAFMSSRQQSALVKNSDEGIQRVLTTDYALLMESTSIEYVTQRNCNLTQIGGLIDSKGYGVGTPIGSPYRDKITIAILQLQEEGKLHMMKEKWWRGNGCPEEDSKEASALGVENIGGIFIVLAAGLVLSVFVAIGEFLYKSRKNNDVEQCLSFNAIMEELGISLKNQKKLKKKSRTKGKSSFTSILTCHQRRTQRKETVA

As for `O=C(O)C[C@@]12O[C@H]3C=CCN[C@H]3C1CN[C@H]2C(=O)O` (stereo partly shown) [IKM-159], the inhibition at 30 µM is 37 ± 4% in test [1] (50 μM KA, read-out: percent inhibition of kainate-evoked steady state GluA4 currents); 30 ± 5% in test [1] (100 μM glutamate, 100 μM cyclothiazide, read-out: percent inhibition of steady-state GluA4 currents); 21 ± 2% in test [1] (500 μM KA, read-out: percent inhibition of kainate-evoked steady state GluA4 currents); 44 ± 8% in test [1] (500 μM glutamate, read-out: percent inhibition of GluA4 non-equilibrium peak currents); 7 ± 2% in test [1] (10 mM glutamate, 100 μM cyclothiazide, read-out: percent inhibition of steady-state GluA4 currents); 40 ± 4% in test [1] (10 mM glutamate, peak current, read-out: reduction from control GluA4 peak glutamate current amplitude (percent inhibition)). The remaining activity at 30 µM in test [1] (HEK293T/17, 30 μM, 10 mM glutamate 100 ms, pre-applied at least one minute, read-out: GluA4 peak current as percent of control amplitude) turned out to be 60 ± 4%. Besides, the IC50 in test [1] (currents evoked by 10 mM glutamate) is 60 ± 8 µM. Further, the “GluK1-2b peak amplitude as percent of basal peak glutamate current” value in test [2] is listed as 90±10%. Moreover, the “NMDA receptor-mediated EPSC amplitude, % of control amplitudes” value in test [3] was 99±3%.
